Reference: patent US20240158348A1, “HERBICIDAL CYCLIC AMIDES N-SUBSTITUTED WITH A HALOALKYLSULFONYLANILIDE GROUP” (FMC Corporation, priority 2021, published 2024)

What was measured:
Format in all cases: in vivo
[1] = tested on: blackgrass (Alopecurus myosuroides); assay: Test C preemergence, blackgrass; conditions: 0 is no effect, 100 is complete control
Text: (§1) Seeds of plant species selected from blackgrass (Alopecurus myosuroides), corn (Zea mays), foxtail, giant (giant foxtail, Setaria faberi), goosegrass (Eleusine indica), kochia (Bassia scoparia), oat, wild (wild oat, Avena fatua), pigweed, palmer (palmer amaranth, Amaranthus palmeri), ragweed (common ragweed, Ambrosia artemisiifolia), ryegrass, Italian (Italian ryegrass, Lolium multiflorum), soybean (Glycine max) and wheat (Triticum aestivum) were planted into a blend of loam soil and sand and treated preemergence with a directed soil spray using test chemicals formulated in a non-phytotoxic solvent mixture which included a surfactant.
(§2) At the same time, plants selected from these crop and weed species and also galium (catchweed bedstraw, Galium aparine) and horseweed (Erigeron canadensis) were planted in pots containing the same blend of loam soil and sand and treated with postemergence applications of test chemicals formulated in the same manner. Plants ranged in height from 2 to 10 cm and were in the one- to two-leaf stage for the postemergence treatment. Treated plants and untreated controls were maintained in a greenhouse for 10 or 12 days, after which time all treated plants were compared to untreated controls and visually evaluated for injury. Plant response ratings, summarized in Table A, are based on a 0 to 100 scale where 0 is no effect and 100 is complete control. A dash (-) response means no test result.

corn (Zea mays) [2] = assay: Test C preemergence, corn; conditions: 0 is no effect, 100 is complete control
Text: as §1, §2

[3] = tested on: foxtail, giant (giant foxtail, Setaria faberi); assay: Test C preemergence, giant foxtail; conditions: 0 is no effect, 100 is complete control
Text: as §1, §2

[4] = tested on: goosegrass (Eleusine indica); assay: Test C preemergence, goosegrass; conditions: 0 is no effect, 100 is complete control
Text: as §1, §2

kochia (Bassia scoparia) [5] = assay: Test C preemergence, kochia; conditions: 0 is no effect, 100 is complete control
Text: as §1, §2

[6] = tested on: oat, wild (wild oat, Avena fatua); assay: Test C preemergence, wild oat; conditions: 0 is no effect, 100 is complete control
Text: as §1, §2

[7] = tested on: pigweed, palmer (palmer amaranth, Amaranthus palmeri); assay: Test C preemergence, palmer amaranth; conditions: 0 is no effect, 100 is complete control
Text: as §1, §2

[8] = tested on: ragweed (common ragweed, Ambrosia artemisiifolia); assay: Test C preemergence, ragweed; conditions: 0 is no effect, 100 is complete control
Text: as §1, §2

[9] = tested on: ryegrass, Italian (Italian ryegrass, Lolium multiflorum); assay: Test C preemergence, Italian ryegrass; conditions: 0 is no effect, 100 is complete control
Text: as §1, §2

soybean (Glycine max) [10] = assay: Test C preemergence, soybean; conditions: 0 is no effect, 100 is complete control
Text: as §1, §2

[11] = tested on: wheat (Triticum aestivum); assay: Test C preemergence, wheat; conditions: 0 is no effect, 100 is complete control
Text: as §1, §2

[12] = tested on: blackgrass (Alopecurus myosuroides); assay: Test C postemergence, blackgrass; conditions: visual injury, 0 to 100 scale (0 no effect, 100 complete control)
Text: as §1, §2

corn (Zea mays) [13] = assay: Test C postemergence, corn; conditions: visual injury, 0 to 100 scale (0 no effect, 100 complete control)
Text: as §1, §2

[14] = tested on: foxtail, giant (giant foxtail, Setaria faberi); assay: Test C postemergence, giant foxtail; conditions: visual injury, 0 to 100 scale (0 no effect, 100 complete control)
Text: as §1, §2

[15] = tested on: goosegrass (Eleusine indica); assay: Test C postemergence, goosegrass; conditions: visual injury, 0 to 100 scale (0 no effect, 100 complete control)
Text: as §1, §2

kochia (Bassia scoparia) [16] = assay: Test C postemergence, kochia; conditions: visual injury, 0 to 100 scale (0 no effect, 100 complete control)
Text: as §1, §2

[17] = tested on: oat, wild (wild oat, Avena fatua); assay: Test C postemergence, wild oat; conditions: visual injury, 0 to 100 scale (0 no effect, 100 complete control)
Text: as §1, §2

[18] = tested on: pigweed, palmer (palmer amaranth, Amaranthus palmeri); assay: Test C postemergence, palmer amaranth; conditions: visual injury, 0 to 100 scale (0 no effect, 100 complete control)
Text: as §1, §2

[19] = tested on: ragweed (common ragweed, Ambrosia artemisiifolia); assay: Test C postemergence, ragweed; conditions: visual injury, 0 to 100 scale (0 no effect, 100 complete control)
Text: as §1, §2

[20] = tested on: ryegrass, Italian (Italian ryegrass, Lolium multiflorum); assay: Test C postemergence, Italian ryegrass; conditions: visual injury, 0 to 100 scale (0 no effect, 100 complete control)
Text: as §1, §2

soybean (Glycine max) [21] = assay: Test C postemergence, soybean; conditions: visual injury, 0 to 100 scale (0 no effect, 100 complete control)
Text: as §1, §2

[22] = tested on: wheat (Triticum aestivum); assay: Test C postemergence, wheat; conditions: visual injury, 0 to 100 scale (0 no effect, 100 complete control)
Text: as §1, §2

[23] = tested on: galium (catchweed bedstraw, Galium aparine); assay: Test C postemergence, galium; conditions: visual injury, 0 to 100 scale (0 no effect, 100 complete control)
Text: as §1, §2

[24] = tested on: horseweed (Erigeron canadensis); assay: Test C postemergence, horseweed; conditions: visual injury, 0 to 100 scale (0 no effect, 100 complete control)
Text: as §1, §2

[25] = tested on: barnyardgrass (Echinochloa crusgalli); assay: Test D flooded paddy test, barnyardgrass; parameters: key: 0 = no effect, 100 = complete control; conditions: 250 g ai/ha, Flood; applied to paddy water at 2-leaf stage; visual rating after 13 days; scale 0 (no effect) to 100 (complete control)
Description: (§3) Plant species in the flooded paddy test selected from barnyardgrass (Echinochloa crusgalli), ducksalad (Heteranthera limosa), rice (Oryza sativa), and sedge, umbrella (small-flower umbrella sedge, Cyperus difformis) were grown to the 2-leaf stage for testing. At time of treatment, test pots were flooded to 3 cm above the soil surface, treated by application of test compounds directly to the paddy water, and then maintained at that water depth for the duration of the test. Treated plants and controls were maintained in a greenhouse for 13 days, after which time all species were compared to controls and visually evaluated. Plant response ratings, summarized in Table B, are based on a scale of 0 to 100 where 0 is no effect and 100 is complete control. A dash (-) response means no test result.

[26] = tested on: ducksalad (Heteranthera limosa); assay: Test D flooded paddy test, ducksalad; parameters: key: 0 = no effect, 100 = complete control; conditions: 250 g ai/ha, Flood; applied to paddy water at 2-leaf stage; visual rating after 13 days; scale 0 (no effect) to 100 (complete control)
Description: as §3

rice (Oryza sativa) = assay: Test D flooded paddy test, rice; parameters: key: 0 = no effect, 100 = complete control; conditions: 250 g ai/ha, Flood; applied to paddy water at 2-leaf stage; visual rating after 13 days; scale 0 (no effect) to 100 (complete control)
Description: as §3

[27] = tested on: sedge, umbrella (small-flower umbrella sedge, Cyperus difformis); assay: Test D flooded paddy test, umbrella sedge; parameters: key: 0 = no effect, 100 = complete control; conditions: 250 g ai/ha, Flood; applied to paddy water at 2-leaf stage; visual rating after 13 days; scale 0 (no effect) to 100 (complete control)
Description: as §3

Cc1c(NS(=O)(=O)C(F)(F)F)cc(N2CCC(OCC3CCC3)C2=O)c(C)c1F (stereo not shown) [Compound 64]
Plant response rating (0 to 100 scale), Blackgrass ([1]; 31 g ai/ha Preemergence): 20
Plant response rating (0 to 100 scale), Blackgrass ([1]; 125 g ai/ha Preemergence): 70
Plant response rating (0 to 100 scale), Corn (corn (Zea mays) [2]; 31 g ai/ha Preemergence): 10
Plant response rating (0 to 100 scale), Corn (corn (Zea mays) [2]; 125 g ai/ha Preemergence): 60
Plant response rating (0 to 100 scale), Foxtail, Giant ([3]; 31 g ai/ha Preemergence): 100
Plant response rating (0 to 100 scale), Foxtail, Giant ([3]; 125 g ai/ha Preemergence): 100
Plant response rating (0 to 100 scale), Goosegrass ([4]; 31 g ai/ha Preemergence): 70
Plant response rating (0 to 100 scale), Goosegrass ([4]; 125 g ai/ha Preemergence): 100
Plant response rating (0 to 100 scale), Kochia (kochia (Bassia scoparia) [5]; 31 g ai/ha Preemergence): 70
Plant response rating (0 to 100 scale), Kochia (kochia (Bassia scoparia) [5]; 125 g ai/ha Preemergence): 90
Plant response rating (0 to 100 scale), Oat, Wild ([6]; 31 g ai/ha Preemergence): 20
Plant response rating (0 to 100 scale), Oat, Wild ([6]; 125 g ai/ha Preemergence): 90
Plant response rating (0 to 100 scale), Pigweed, Palmer ([7]; 31 g ai/ha Preemergence): 100
Plant response rating (0 to 100 scale), Pigweed, Palmer ([7]; 125 g ai/ha Preemergence): 100
Plant response rating (0 to 100 scale), Ragweed ([8]; 31 g ai/ha Preemergence): 90
Plant response rating (0 to 100 scale), Ragweed ([8]; 125 g ai/ha Preemergence): 100
Plant response rating (0 to 100 scale), Ryegrass, Italian ([9]; 31 g ai/ha Preemergence): 50
Plant response rating (0 to 100 scale), Ryegrass, Italian ([9]; 125 g ai/ha Preemergence): 90
Plant response rating (0 to 100 scale), Soybean (soybean (Glycine max) [10]; 31 g ai/ha Preemergence): 40
Plant response rating (0 to 100 scale), Soybean (soybean (Glycine max) [10]; 125 g ai/ha Preemergence): 90
Plant response rating (0 to 100 scale), Wheat ([11]; 31 g ai/ha Preemergence): 20
Plant response rating (0 to 100 scale), Wheat ([11]; 125 g ai/ha Preemergence): 70
Blackgrass plant response rating ([12]; 31 g ai/ha Postemergence): 0
Blackgrass plant response rating ([12]; 125 g ai/ha Postemergence): 20
Corn plant response rating (corn (Zea mays) [13]; 31 g ai/ha Postemergence): 0
Corn plant response rating (corn (Zea mays) [13]; 125 g ai/ha Postemergence): 10
Foxtail, Giant plant response rating ([14]; 31 g ai/ha Postemergence): 0
Foxtail, Giant plant response rating ([14]; 125 g ai/ha Postemergence): 20
Goosegrass plant response rating ([15]; 31 g ai/ha Postemergence): 30
Goosegrass plant response rating ([15]; 125 g ai/ha Postemergence): 70
Kochia plant response rating (kochia (Bassia scoparia) [16]; 31 g ai/ha Postemergence): 50
Kochia plant response rating (kochia (Bassia scoparia) [16]; 125 g ai/ha Postemergence): 100
Oat, Wild plant response rating ([17]; 31 g ai/ha Postemergence): 0
Oat, Wild plant response rating ([17]; 125 g ai/ha Postemergence): 10
Pigweed, Palmer plant response rating ([18]; 31 g ai/ha Postemergence): 60
Pigweed, Palmer plant response rating ([18]; 125 g ai/ha Postemergence): 70
Ragweed plant response rating ([19]; 31 g ai/ha Postemergence): 30
Ragweed plant response rating ([19]; 125 g ai/ha Postemergence): 70
Ryegrass, Italian plant response rating ([20]; 31 g ai/ha Postemergence): 0
Ryegrass, Italian plant response rating ([20]; 125 g ai/ha Postemergence): 20
Soybean plant response rating (soybean (Glycine max) [21]; 31 g ai/ha Postemergence): 60
Soybean plant response rating (soybean (Glycine max) [21]; 125 g ai/ha Postemergence): 90
Wheat plant response rating ([22]; 31 g ai/ha Postemergence): 0
Wheat plant response rating ([22]; 125 g ai/ha Postemergence): 20
Galium plant response rating ([23]; 31 g ai/ha Postemergence): 100
Galium plant response rating ([23]; 125 g ai/ha Postemergence): 100
Horseweed plant response rating ([24]; 31 g ai/ha Postemergence): 10
Horseweed plant response rating ([24]; 125 g ai/ha Postemergence): 60
Plant response rating, Barnyardgrass [25]: 25
Plant response rating, Ducksalad [26]: 80
Plant response rating, Rice (rice (Oryza sativa)): 15
Plant response rating, Sedge, Umbrella [27]: 95
